Test results: patent US20210206763A1, “Anti-Proliferative Agents” (FEMTOGENIX LIMITED, priority 2015, published 2021)

What was measured:
MCF-7 = assay: In vitro cytotoxicity of free payloads, MTT assay; type: cell-based; settings: Homo sapiens, MCF7; 72 hour incubation
Method: (§1) The in vitro cytotoxicity of compounds 73, 76, 81, 88 and 93 were evaluated in the JIMT-1, MCF-7, MDA-MB-453 and SK-BR-3 (all breast cancer) cell lines using the standard MIT assay for a 72 hour incubation period (Table 3).
(§2) Tumor cell lines were maintained in RPMI1640 medium supplemented with 10% heat-inactivated fetal bovine serum, 2 mM L-glutamine and 1 mM sodium pyruvate. 1800 cells per well were seeded in a volume of 180 μl in a 96-well flat bottom polystyrene plate. The cells were allowed to adhere overnight at 37° C. in a CO2 incubator. Ligands were initially formulated in DMSO, and stocks stored at −80° C. They were then further formulated at lox concentration in RPMI1640 medium. 20 ul of diluted samples were added into each treatment well. On each plate, blank wells with no cells, and untreated wells containing cells, were included. Plates were then cultured at 37° C. in a CO2 incubator for 72 hrs. Cytotoxicity was evaluated using a tetrazolium salt-based assay, the MIT assay. After 72 hours, the supernatant was removed from each well and 200 μl of a sterile filtered 500 μg/ml MTT solution in water added to each well. The plates were then incubated at 37° C. in a CO2 incubator for 4 hrs. The supernatant was then removed and the formazan crystals formed solubilized by adding 15(411 of DMSO to each well. The plate was then read on a plate reader at 540 nm, and percentage cell survival calculated as follows: ((mean absorbance treated wells at concentration x−mean absorbance blank wells)÷(mean absorbance untreated wells at concentration x−mean absorbance blank wells))×100. Data were plotted as concentration in nM vs. % cell survival in Microsoft Excel, and IC50 values (concentration where cell survival is reduced by a half) were determined from the graph.

SK-BR-3 = assay: In vitro cytotoxicity of free payloads, MTT assay; type: cell-based; settings: Homo sapiens, 72 hour incubation
Method: as §1, §2

MDA-MB-453 = assay: In vitro cytotoxicity of free payloads, MTT assay; type: cell-based; settings: Homo sapiens, 72 hour incubation
Method: as §1, §2

JIMT-1 = assay: In vitro cytotoxicity of free payloads, MTT assay; type: cell-based; settings: Homo sapiens, 72 hour incubation
Method: as §1, §2

MS1 DNA fragment = assay: DNA footprinting; type: binding; settings: overnight incubation of ligand-DNA complexes
Method: (§3) The DNA sequence selectivity profile of selected molecules was investigated using a modification of the previously established DNA footprinting assay ^[32]. Following an overnight incubation of the ligand-DNA complexes, the mixture was mixed with strand separation buffer containing 10 mM EDTA, 10 mM NaOH, 0.1% bromophenol blue, 80% formamide and incubated at 100° C. for 3 min. The mixture was then immediately cooled on ice and run on an 8% denaturing gel. […] 93 (solid black line) also interacts with two further sites. The PBD dimer Talirine (green) illustrates a different binding pattern to 73, 76, 81, 88 and 93. Strong DNA footprints are represented by solid lines and weaker footprints are represented by hatched lines. […] Strong DNA footprints are represented by solid lines, and weaker footprints are represented by hatched lines
(§4) Footprinting reactions were performed as previously described ^[36] using the DNA fragments HexA and HexB, which together contain all 64 symmetrical hexanucleotide sequences^[6], and MS1 that contains all possible […] tetranucleotide sequences ^[38]. The DNA fragments were obtained by cutting the parent plasmids with HindIII and SacI (for HexA and MS1) or EcoRI and PstI (for HexB), and were labelled at the 3′-end of the HindIII or EcoRI sites with [α-^32P]dATP using reverse transcriptase or exo-Klenow fragment. After gel purification, the radiolabelled DNA was dissolved in 10 mM Tris-HCl pH 7.5 containing 0.1 mM EDTA, at a concentration of about 10 c.p.s per μL as determined on a hand held Geiger counter. 1.5 μL of radiolabelled DNA was mixed with 1.5 μL ligand that had been freshly diluted in 10 mM Tris-HCl pH 7.5, containing 10 mM NaCl. The complexes were left to equilibrate for at least 12 hours before digesting with 2 μL DNase I (final concentration about 0.01 units/mL). The reactions were stopped after 1 minute by adding 4 μL of formamide containing 10 mM EDTA and bromophenol blue (0.1% w/v). The samples were then heated at 100° C. for 3 minutes before loading onto 8% denaturing polyacrylamide gels containing 8 M urea. Gels were fixed in 10% acetic acid, transferred to 3MM paper, dried and exposed to a phosphor screen overnight, before analysing with a Typhoon phosphorimager

HexA DNA fragment = assay: DNA footprinting; type: binding; settings: overnight incubation of ligand-DNA complexes
Method: as §3, §4

SMILES | IC50 (MCF-7) | IC50 (SK-BR-3) | IC50 (MDA-MB-453) | IC50 (JIMT-1) | number of preferred binding sites observed in MS1 (MS1 DNA fragment) | number of preferred binding sites observed in HexA (HexA DNA fragment) | further sequences bound in MS1 not occupied by 73, 76, 81 and 88 (MS1 DNA fragment)
COc1cc2c(cc1OCCCC(=O)Nc1cc(C(=O)Nc3ccc(-c4cc(C(=O)Nc5ccccc5)n(C)c4)cc3)n(C)c1)N=C[C@@H]1CCCCN1C2=O [Compound 73, (S)-4-(4-((2-Methoxy-12-oxo-6a,7,8,9,10,12-hexahydrobenzo[e]pyrido[1,2-a][1,4]diazepin-3-yl)oxy)butanamido)-1-methyl-N-(4-(1-methyl-5-(phenylcarbamoyl)-1H-pyrrol-3-yl)phenyl)-1H-pyrrole-2-carboxamide] | 0.42 nM | 0.27 nM | 0.2 nM | 0.33 nM | six | five | –
COc1cc2c(cc1OCCCC(=O)Nc1cc(C(=O)Nc3ccc(-c4cc(C(=O)Nc5ccc(C)cc5)n(C)c4)cc3)n(C)c1)N=C[C@@H]1CCCCN1C2=O [Compound 76, (S)-4-(4-((2-Methoxy-12-oxo-6a,7,8,9,10,12-hexahydrobenzo[e]pyrido[1,2-a][1,4]diazepin-3-yl)oxy)butanamido)-1-methyl-N-(4-(1-methyl-5-(p-tolylcarbamoyl)-1H-pyrrol-3-yl)phenyl)-1H-pyrrole-2-carboxamide] | 0.53 nM | 0.29 nM | 0.19 nM | 0.43 nM | six | five | –
COC(=O)c1ccc(NC(=O)c2cc(-c3ccc(NC(=O)c4cc(NC(=O)CCCOc5cc6c(cc5OC)C(=O)N5CCCC[C@H]5C=N6)cn4C)cc3)cn2C)cc1 [Compound 81, Methyl (S)-4-(4-(4-(4-(4-((2-methoxy-12-oxo-6a,7,8,9,10,12-hexahydrobenzo[e]pyrido[1,2-a][1,4]diazepin-3-yl)oxy)butanamido)-1-methyl-1H-pyrrole-2-carboxamido)phenyl)-1-methyl-1H-pyrrole-2-carboxamido)benzoate] | 1.4 nM | 0.33 nM | 0.42 nM | 0.5 nM | six | five | –
COc1cc2c(cc1OCCCC(=O)Nc1cc(C(=O)Nc3ccc(-c4cn(C)c(C(=O)Nc5ccccc5)n4)cc3)n(C)c1)N=C[C@@H]1CCCCN1C2=O [Compound 88, (S)-4-(4-(4-(4-((2-Methoxy-12-oxo-6a,7,8,9,10,12-hexahydrobenzo[e]pyrido[1,2-a][1,4]diazepin-3-yl)oxy)butanamido)-1-methyl-1H-pyrrole-2-carboxamido)phenyl)-1-methyl-N-phenyl-1H-imidazole-2-carboxamide] | 0.6 nM | 0.06 nM | 0.13 nM | 0.37 nM | six | five | –
COc1cc2c(cc1OCCCC(=O)Nc1cn(C)c(C(=O)Nc3ccc(-c4cc(C(=O)Nc5ccccc5)n(C)c4)cc3)n1)N=C[C@@H]1CCCCN1C2=O [Compound 93, (S)-4-(4-((2-Methoxy-12-oxo-6a,7,8,9,10,12-hexahydrobenzo[e]pyrido[1,2-a][1,4]diazepin-3-yl)oxy)butanamido)-1-methyl-N-(4-(1-methyl-5-(phenylcarbamoyl)-1H-pyrrol-3-yl)phenyl)-1H-imidazole-2-carboxamide] | 2 nM | 0.09 nM | 0.18 nM | 0.37 nM | – | – | two
